# Assay results published in patent USRE39591E1, “6-O-substituted ketolides having antibacterial activity” (Abbott Laboratories, priority 1996, dated 2007).
# Tested on: up to 32 different microorganisms
# Test: in vitro antibacterial activity (MIC), agar dilution on Brain Heart Infusion (BHI) agar with Steers replicator
# Format: cell-based
# Conditions: unit assumed
# Procedure, shortened: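 MIC read visually: lowest drug level with no growth, slight haze or sparsely isolated colonies on the inoculum spot relative to drug-free control. Serial aqueous compound dilutions in BHI agar, 1:100 inoculum (1:10 slow strains), 20 to 24 hours at 35°-37° C.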
# [1] = Candida albicans CCH 442 (code TT)
# [2] = Enterococcus faecism ATCC 8043 (code II)
# [3] = Escherichia coli DC-2 (code SS)
# [4] = Escherichia coli JUHL (code QQ)
# [5] = Haemophilis influenzae DILL AMP R (code WW)
# [6] = Micrococcus luteus ATCC 4698 (code PP)
# [7] = Micrococcus luteus ATCC 9341 (code OO)
# [8] = Mycobacterium smegmatis ATCC 114 (code UU)
# [9] = Nocardia Asteroides ATCC9970 (code VV)
# [10] = Staphylococcus aureus 1775 (code GG)
# [11] = Staphylococcus aureus A5177 (code BB)
# [12] = Staphylococcus aureus A-5278 (code CC)
# [13] = Staphylococcus aureus ATCC 6538P (code AA)
# [14] = Staphylococcus aureus CMX 553 (code FF)
# [15] = Staphylococcus aureus CMX 642A (code DD)
# [16] = Staphylococcus aureus NCTC10649M (code EE)
# [17] = Staphylococcus epidermidis 3519 (code HH)
# [18] = Streptococcus Pneumonia 5649 (code ZZA)
# [19] = Streptococcus Pneumonia 5979 (code ZZ)
# [20] = Streptococcus Pneumonia ATCC6303 (code XX)
# [21] = Streptococcus Pneumonia GYR 1171 (code YY)
# [22] = Streptococcus agalactiae CMX 508 (code KK)
# [23] = Streptococcus pyogenes 930 (code MM)
# [24] = Streptococcus pyogenes EES61 (code LL)
# [25] = Streptococcus pyogenes PIU 2548 (code NN)
smiles,measurement,setting,value
CC[C@H]1OC(=O)[C@H](C)C(=O)[C@H](C)[C@@H](O[C@@H]2O[C@H](C)C[C@H](N(C)C)[C@H]2O)[C@@](C)(OCC=Cc2cnc3ccc(C(=O)O)cc3c2)C[C@@H](C)C(=O)[C@H](C)[C@H]2NC(=O)O[C@@]21C [Example 214],MIC,organism code AA,6.2 µg/mL
same,MIC,organism code BB,251 µg/mL
same,MIC,organism code CC,> 100 µg/mL
same,MIC,organism code DD,12.5 µg/mL
same,MIC,organism code EE,12.5 µg/mL
same,MIC,organism code FF,12.5 µg/mL
same,MIC,organism code GG,> 100 µg/mL
same,MIC,organism code HH,25 µg/mL
same,MIC,organism code II,25 µg/mL
same,MIC,organism code JJ,6.2 µg/mL
same,MIC,organism code KK,3.1 µg/mL
same,MIC,organism code LL,1.56 µg/mL
same,MIC,organism code MM,12.5 µg/mL
same,MIC,organism code NN,25 µg/mL
same,MIC,organism code OO,12.5 µg/mL
same,MIC,organism code PP,12.5 µg/mL
same,MIC,organism code QQ,> 100 µg/mL
same,MIC,organism code RR,3.1 µg/mL
same,MIC,organism code SS,> 100 µg/mL
same,MIC,organism code TT,> 100 µg/mL
same,MIC,organism code UU,100 µg/mL
same,MIC,organism code VV,50 µg/mL
same,MIC,organism code WW,64 µg/mL
same,MIC,organism code XX,1 µg/mL
same,MIC,organism code YY,1 µg/mL
same,MIC,organism code ZZ,> 128 µg/mL
same,MIC,organism code ZZA,32 µg/mL
"CCC1OC(=O)C(C)C(=O)C(C)C(OC2OC(C)CC(N(C)C)C2O)C(C)(OCC=Cc2cnc3ccc(Cl)cc3c2)CC(C)C(=O)C(C)C2NC(=O)OC12C (centres unmarked) [Example 191, R is —CH2CH═CH-(6-chloro-3-quinolyl)]",MIC,[1],> 100 µg/mL
same,MIC,[2],0.05 µg/mL
same,MIC,[3],100 µg/mL
same,MIC,[4],50 µg/mL
same,MIC,Escherichia coli SS (code RR),0.2 µg/mL
same,MIC,[5],2 µg/mL
same,MIC,[6],0.1 µg/mL
same,MIC,[7],0.01 µg/mL
same,MIC,[8],0.39 µg/mL
same,MIC,[9],0.02 µg/mL
same,MIC,[10],> 100 µg/mL
same,MIC,[11],0.05 µg/mL
same,MIC,[12],> 100 µg/mL
same,MIC,[13],0.05 µg/mL
same,MIC,[14],0.05 µg/mL
same,MIC,[15],0.05 µg/mL
same,MIC,[16],0.1 µg/mL
same,MIC,[17],0.05 µg/mL
same,MIC,[18],0.25 µg/mL
same,MIC,[19],2 µg/mL
same,MIC,[20],0.03 µg/mL
same,MIC,[21],0.03 µg/mL
same,MIC,[22],0.05 µg/mL
same,MIC,[23],3.1 µg/mL
same,MIC,[24],0.02 µg/mL
same,MIC,[25],0.1 µg/mL
"CCC1OC(=O)C(C)C(=O)C(C)C(OC2OC(C)CC(N(C)C)C2O)C(C)(OCC=Cc2ccc3[nH]ccc3c2)CC(C)C(=O)C(C)C2NC(=O)OC12C (centres unmarked) [Example 190, R is —CH2CH═CH-(5-indolyl)]",MIC,[1],> 100 µg/mL
same,MIC,[2],0.02 µg/mL
same,MIC,[3],100 µg/mL
same,MIC,[4],100 µg/mL
same,MIC,Escherichia coli SS (code RR),0.2 µg/mL
same,MIC,[5],4 µg/mL
same,MIC,[6],0.1 µg/mL
same,MIC,[7],0.01 µg/mL
same,MIC,[8],0.78 µg/mL
same,MIC,[9],0.1 µg/mL
same,MIC,[10],> 100 µg/mL
same,MIC,[11],0.05 µg/mL
same,MIC,[12],> 100 µg/mL
same,MIC,[13],0.05 µg/mL
same,MIC,[14],0.02 µg/mL
same,MIC,[15],0.05 µg/mL
same,MIC,[16],0.02 µg/mL
same,MIC,[17],0.05 µg/mL
same,MIC,[18],0.5 µg/mL
same,MIC,[19],> 128 µg/mL
same,MIC,[20],0.06 µg/mL
same,MIC,[21],0.03 µg/mL
same,MIC,[22],≤ 0.005 µg/mL
same,MIC,Streptococcus bovis A-5169 (code JJ),≤ 0.005 µg/mL
same,MIC,[23],12.5 µg/mL
same,MIC,[24],≤ 0.005 µg/mL
same,MIC,[25],0.1 µg/mL
"CCC1OC(=O)C(C)C(=O)C(C)C(OC2OC(C)CC(N(C)C)C2O)C(C)(OCC=Cc2cccc(-c3ccccc3)c2)CC(C)C(=O)C(C)C2NC(=O)OC12C (centres unmarked) [Example 280, Compound of Formula (IX): L is CO, T is NH2, R is —CH2CH═CH-(3-biphenyl)]",MIC,organism code AA,0.39 µg/mL
same,MIC,organism code BB,0.39 µg/mL
same,MIC,organism code CC,50 µg/mL
same,MIC,organism code DD,0.39 µg/mL
same,MIC,organism code EE,0.39 µg/mL
same,MIC,organism code FF,0.39 µg/mL
same,MIC,organism code GG,50 µg/mL
same,MIC,organism code HH,0.39 µg/mL
same,MIC,organism code II,0.2 µg/mL
same,MIC,organism code JJ,0.05 µg/mL
same,MIC,organism code KK,0.05 µg/mL
same,MIC,organism code LL,0.1 µg/mL
same,MIC,organism code MM,12.5 µg/mL
same,MIC,organism code NN,0.39 µg/mL
same,MIC,organism code OO,0.1 µg/mL
same,MIC,organism code PP,0.78 µg/mL
same,MIC,organism code QQ,> 100 µg/mL
same,MIC,organism code RR,1.56 µg/mL
same,MIC,organism code SS,> 100 µg/mL
same,MIC,organism code TT,> 100 µg/mL
same,MIC,organism code UU,3.1 µg/mL
same,MIC,organism code VV,6.2 µg/mL
same,MIC,organism code WW,8 µg/mL
same,MIC,organism code XX,0.06 µg/mL
same,MIC,organism code YY,0.06 µg/mL
same,MIC,organism code ZZ,16 µg/mL
same,MIC,organism code ZZA,1 µg/mL
"CCC1OC(=O)C(C)C(=O)C(C)C(OC2OC(C)CC(N(C)C)C2O)C(C)(OCC=Cc2ccc3ncc(-c4cccs4)cc3c2)CC(C)C(=O)C(C)C2NC(=O)OC12C (centres unmarked) [Example 275, Compound of Formula (IX): L is CO, T is NH2, R is —CH2CH═CH-(3-(2-thiphenyl)-6-quinolyl)]",MIC,organism code AA,0.2 µg/mL
same,MIC,organism code BB,0.2 µg/mL
same,MIC,organism code CC,> 100 µg/mL
same,MIC,organism code DD,0.2 µg/mL
same,MIC,organism code EE,0.2 µg/mL
same,MIC,organism code FF,0.2 µg/mL
same,MIC,organism code GG,> 100 µg/mL
same,MIC,organism code HH,0.2 µg/mL
same,MIC,organism code II,0.1 µg/mL
same,MIC,organism code JJ,0.01 µg/mL
same,MIC,organism code KK,0.05 µg/mL
same,MIC,organism code LL,0.02 µg/mL
same,MIC,organism code MM,12.5 µg/mL
same,MIC,organism code NN,0.2 µg/mL
same,MIC,organism code OO,0.02 µg/mL
same,MIC,organism code PP,0.2 µg/mL
same,MIC,organism code QQ,> 100 µg/mL
same,MIC,organism code RR,0.78 µg/mL
same,MIC,organism code SS,> 100 µg/mL
same,MIC,organism code TT,> 100 µg/mL
same,MIC,organism code UU,0.39 µg/mL
same,MIC,organism code VV,0.2 µg/mL
same,MIC,organism code WW,8 µg/mL
same,MIC,organism code XX,0.03 µg/mL
same,MIC,organism code YY,0.03 µg/mL
same,MIC,organism code ZZ,4 µg/mL
same,MIC,organism code ZZA,0.5 µg/mL
